Reference: US20220220100A1 (SOLUTIA CANADA INC., priority 2019, published 2022)

Experiments:
[1] = Oxidation potential of ring-closed and ring-open isomers; type: physicochemical; conditions: no unit printed in table (V relative to Ag/AgCl)
Source text: In various embodiments, at a PSS, some of the chromophore will be in the ring-closed isomer, with a small, but non-zero portion of ring-open isomer. The oxidation potential of a ring-open isomer may be more anodic than the oxidation potential of a ring-closed isomer. Exposure to a potential that is too far beyond what is necessary to oxidize the ring-closed isomer may result in oxidation of the ring-open isomer, which may be irreversible and result in electrochemically-induced degradation of the chromophore.
Thus, in various embodiments, an anodic chromophore may have an oxidation potential of from about 0.4 V to 1.2 V for the ring-closed isomer and about 1.0 V to 2.5 V for the ring-open isomer relative to an Ag/AgCl reference electrode. In various embodiments, the oxidation potential for the ring-open isomer is about 250 mV more anodic than the oxidation potential for the ring-closed isomer. For example, the oxidation potential may be about 260 mV, about 280 mV, about 300 mV, about 320 mV, about 340 mV, about 360 mV, about 380 mV, about 400 mV, about 420 mV, about 440 mV, or about 460 mV more anodic than the oxidation potential for the ring-closed isomer.

[2] = Photostability: xenon arc weathering of chromophore solutions, LCMS analysis; type: physicochemical; conditions: for Ketone (%) / Minus-2HF (%) / Minus-HF (%) / Sulfone (%) / Chromophore Remaining (%): xenon arc, 82° C. bp; for Ketone (%) / Minus-2HF (%) / Minus-HF (%) / Sulfone (%): linearly interpolated to 0.5 MJ/m2 @ 340 nm; for Chromophore Remaining (%): linearly interpolated to 0.5 MJ/m2 @ 340 nm of exposure energy; for Ratio of chromophore remaining relative to S340: interpolated to 0.5 MJ/m^2 of energy exposure at 340 nm; for Photostability (in words): weathering experiments
Source text: Photostability (resistance to light-induced degradation) may be measured by the amount of time required for the compound, or a material comprising the compound, to degrade to a certain point under light exposure. The light exposure may be constant, or cyclic. The light transmittance or absorbance of the compound, or material comprising the compound, may be determined at both a light state and dark state prior to testing, to determine a contrast ratio. During testing, the contrast ratio may be monitored (periodically or continually), the compound or material may be determined to have failed when the contrast ratio falls outside, or below, a selected range, or when the contrast ratio decreases to a percentage of the original contrast ratio. Photostability may also be expressed with reference to a light source or with reference to a type of light.
Chromophore solutions in Rhodiasolv IRIS were prepared at 1 to 10 wt % loading. Solutions were prepared in a glovebox by charging the chromophore and Rhodiasolv IRIS to a trace-clean vial, and the solution was stirred on a hotplate at 90° C. for 2-24 hours. After cooling, the chromophore solution was injected into glass weathering cells and the fill and vent ports were sealed with a thin disc of Kalrez (FFKM Perfluorinated Elastomer) and secured with a clamp and set-screw. The weathering cells were filled and sealed inside the glove box.
Measurement of Photostability
A. Fabrication of cuvettes. Two holes of 0.8 mm diameter were drilled at opposite ends in a 75×50 mm piece of float glass using a diamond drill bit in a rotary tool. The drilled glass and a matching piece of undrilled glass were then cleaned using hot soapy water, rinsed with deionized water and acetone and then dried with compressed air. A 5 mm wide frame was cut from a sheet of 50 μm thickness EVAL EF-F using a laser engraver. The EVAL frame was placed around the perimeter of one sheet of glass and sandwiched by the second sheet of glass. The glass-EVAL-glass sandwich was secured with tape and heated under vacuum (10 mmHg) for 30 minutes at 170° C. in a vacuum bag. After cooling, a third piece of float glass was PVB laminated to the non-drilled side of the sealed glass cells using Trosifol UV Extra Protect B150 PVB (400 nm UV cut-off).
B. Xenon arc weathering protocol. Devices were exposed to simulated weathering conditions inside a Xe-3-HS xenon arc chamber, manufactured by Q-labs Inc. The samples were weathered according to the following table. The devices were exposed to these conditions continuously, with no dark or spray cycles included.
C. Analysis of weathered chromophore solutions by LCMS. The set-screws, metal clamps and Kalrez plugs were removed from the cuvette to expose the fill port. A 5 mL plastic syringe (NORM-JECT®) equipped with a tip (Precision Tips, 0.010″ RED) was inserted into one fill port and the chromophore solution was withdrawn from the cuvette. The chromophore solution was then injected into a 2 mL amber vial (part number 5182-0716, Agilent Technology) prefilled with 1.5 mL LC-MS grade acetonitrile (HiPerSolbe CHROMANORM Acetonitrile, VWR BDH Chemicals). An aliquot of the acetonitrile solution (2 μL) was injected into the LC-MS system (Agilent Infinity 1290 LC-MS system with diode array detector) through an autosampler mechanism. Species in the injected sample were separated through a reverse phase column (Zorbax SB-C18, 2.1×50 mm, 1.8 μm, operated at 40° C.), using a mixture of acetonitrile (mixed with 1% formic acid v/v ratio), methanol (HiPerSolbe CHROMANORM Methanol, VWR BDH Chemicals) and water (HiPerSolbe CHROMANORM Water, VWR BDH Chemicals) as mobile phase.

Row | Compound | RC [O] (oxidation potential of ring-closed isomer) [1] | RO [O] (oxidation potential of ring-open isomer) [1] | Ketone (%) ([2]; 10 wt % in Rhodiasolv IRIS) | Minus-2HF (%) ([2]; 10 wt % in Rhodiasolv IRIS) | Minus-HF (%) ([2]; 10 wt % in Rhodiasolv IRIS) | Sulfone (%) ([2]; 10 wt % in Rhodiasolv IRIS) | Chromophore Remaining (%) ([2]; 10 wt % in Rhodiasolv IRIS) | Ratio of chromophore remaining relative to S340 ([2]; 10 wt %) | Photostability (in words) [2] | Formation of the Minus-HF degradation product (in words) [2] | other results
1 | CCOC(=O)CCCOc1cc2oc(-c3ccc(C(C)(C)C)cc3)c(C3=C(c4cc(-c5ccc(C(C)(C)C)s5)sc4-c4ccc(C(C)(C)C)s4)C(F)(F)C(F)(F)C3(F)F)c2cc1OCCCC(=O)OCC [Chromophore S374, diethyl 4,4′-((2-(4-(tert-butyl)phenyl)-3-(2-(5,5″-di-tert-butyl-[2,2′:5′,2″-terthiophen]-3′-yl)-3,3,4,4,5,5-hexafluorocyclopent-1-en-1-yl)benzofuran-5,6-diyl)bis(oxy))dibutanoate] | 0.93 | 1.35 | 0.0% | 0.0% | 26.5% | 0.0% | 72.4% | 0.79 | decreased stability |  | 
2 | COc1cc2oc(-c3ccc(C(C)(C)C)cc3)c(C3=C(c4cc(-c5cc(C(C)(C)C)cs5)sc4-c4cc(C(C)(C)C)cs4)C(F)(F)C(F)(F)C3(F)F)c2cc1OC [Chromophore S377, 2-(4-(tert-butyl)phenyl)-3-(2-(4,4″-di-tert-butyl-[2,2′:5′,2″-terthiophen]-3′-yl)-3,3,4,4,5,5-hexafluorocyclopent-1-en-1-yl)-5,6-dimethoxybenzofuran] | 0.97 | 1.42 |  |  |  |  |  |  | high photostability |  | Ketone (%) ([2]; 5 wt % in Rhodiasolv IRIS): 0.0%; Minus-2HF (%) ([2]; 5 wt % in Rhodiasolv IRIS): 0.0%; Minus-HF (%) ([2]; 5 wt % in Rhodiasolv IRIS): 0.0%; Sulfone (%) ([2]; 5 wt % in Rhodiasolv IRIS): 0.0%; Chromophore Remaining (%) ([2]; 5 wt % in Rhodiasolv IRIS): 100.0%; Ratio of chromophore remaining relative to S340 ([2]; 5 wt %): 1.10
3 | COc1cc2oc(-c3ccc(C(C)(C)C)cc3)c(C3=C(c4cc(-c5ccc(C(C)(C)C)s5)sc4-c4sc(C(C)(C)C)cc4C)C(F)(F)C(F)(F)C3(F)F)c2cc1OC [Chromophore S378, 2-(4-(tert-butyl)phenyl)-3-(2-(5,5″-di-tert-butyl-3-methyl-[2,2′:5′,2″-terthiophen]-3′-yl)-3,3,4,4,5,5-hexafluorocyclopent-1-en-1-yl)-5,6-dimethoxybenzofuran] | 0.9 | 1.36 |  |  |  |  |  |  |  | does not occur | Ketone (%) ([2]; 3 wt % in Rhodiasolv IRIS): 0.0%; Minus-2HF (%) ([2]; 3 wt % in Rhodiasolv IRIS): 0.0%; Minus-HF (%) ([2]; 3 wt % in Rhodiasolv IRIS): 0.0%; Sulfone (%) ([2]; 3 wt % in Rhodiasolv IRIS): 7.5%; Chromophore Remaining (%) ([2]; 3 wt % in Rhodiasolv IRIS): 92.5%; Ratio of chromophore remaining relative to S340 ([2]; 3 wt %): 1.02
4 | CCOC(=O)CCCOc1cc2oc(-c3ccc(C(C)(C)C)cc3)c(C3=C(c4cc(-c5ccc(C(C)(C)C)s5)sc4-c4sc(C(C)(C)C)cc4C)C(F)(F)C(F)(F)C3(F)F)c2cc1OCCCC(=O)OCC [Chromophore S383, diethyl 4,4′-((2-(4-(tert-butyl)phenyl)-3-(2-(5,5″-di-tert-butyl-3-methyl-[2,2′:5′,2″-terthiophen]-3′-yl)-3,3,4,4,5,5-hexafluorocyclopent-1-en-1-yl)benzofuran-5,6-diyl)bis(oxy))dibutanoate] | 0.91 | 1.36 | 0.0% | 0.0% | 0.0% | 0.0% | 100.0% | 1.10 |  | does not occur | 
5 | CCOC(=O)CCCOc1cc2oc(-c3ccc(C(C)(C)C)cc3)c(C3=C(c4cc(-c5sc(C(C)(C)C)cc5C)sc4-c4sc(C(C)(C)C)cc4C)C(F)(F)C(F)(F)C3(F)F)c2cc1OCCCC(=O)OCC [Chromophore S384, diethyl 4,4′-((2-(4-(tert-butyl)phenyl)-3-(2-(5,5″-di-tert-butyl-3,3″-dimethyl-[2,2′:5′,2″-terthiophen]-3′-yl)-3,3,4,4,5,5-hexafluorocyclopent-1-en-1-yl)benzofuran-5,6-diyl)bis(oxy))dibutanoate] | 0.87 | 1.31 | 0.0% | 0.0% | 0.0% | 1.3% | 97.2% | 1.07 |  | does not occur | 
6 | CCOC(=O)CCCOc1cc2oc(-c3ccc(C(C)(C)C)cc3)c(C3=C(c4cc(-c5cc(C(C)(C)C)cs5)sc4-c4cc(C(C)(C)C)cs4)C(F)(F)C(F)(F)C3(F)F)c2cc1OCCCC(=O)OCC [Chromophore S386, diethyl 4,4′-((2-(4-(tert-butyl)phenyl)-3-(2-(4,4″-di-tert-butyl-[2,2′:5′,2″-terthiophen]-3′-yl)-3,3,4,4,5,5-hexafluorocyclopent-1-en-1-yl)benzofuran-5,6-diyl)bis(oxy))dibutanoate] | 0.99 | 1.4 | 0.0% | 0.0% | 0.0% | 0.0% | 98.6% | 1.08 | high photostability | prevents the Minus-HF product | 
7 | CCOC(=O)CCCOc1cc2oc(-c3ccc(C(C)(C)C)cc3)c(C3=C(c4cc(-c5cc6c(s5)C(C)(C)CCC6(C)C)sc4-c4cc5c(s4)C(C)(C)CCC5(C)C)C(F)(F)C(F)(F)C3(F)F)c2cc1OCCCC(=O)OCC [Chromophore S387, ethyl 4-[(3-{2-[2,5-bis(4,4,7,7-tetramethyl-4,5,6,7-tetrahydro-1-benzothiophen-2-yl)thiophen-3-yl]-3,3,4,4,5,5-hexafluorocyclopent-1-en-1-yl}-2-(4-tert-butylphenyl)-6-(4-ethoxy-4-oxobutoxy)-1-benzofuran-5-yl)oxy]butanoate] | 0.92 | 1.29 | 0.0% | 0.0% | 0.0% | 0.0% | 100.0% | 1.10 | high photostability | prevents the Minus-HF product | 
